Assay results published in US12331051B2 (priority 2021, dated 2025).

What was measured:
5-HT2A receptor [1] = target: T1, 5-HT2A receptor (Homo sapiens, UniProt P28223)
5-HT2A receptor [2] = target: T1, 5-HT2A receptor; assay: 5-HT2A receptor internalization, NanoBit HiBit-fused 5-HT2A in HEK293T cells; assay type: cell-based; set-up: expressed in transfected cells; host or cells: HEK293T
Protocol: To assess the ability of the “E559 polymorph” to induce β-arrestin-mediated 5-HT2A receptor internalization in vitro, the loss of surface expression of 5-HT2A receptor was measured using a NanoBit N-terminal HiBit-fused 5-HT2A construct cloned in HEK293T cells (1:15 ratio 5-HT2A: β-arrestin2). In brief, cells were treated with serial dilution of test compounds for 1 hour or a specified time point.

mice = assay: Tolerance after repeated dosing, HTR to DOI challenge; assay type: in vivo, mouse; conditions: IP once daily 7 days: DOI 10 mg/kg/day, E559 polymorph 3 mg/kg/day; DOI 1 mg/kg challenge 24 hours later
Protocol: To determine if repeated dosing of the “E559 polymorph” can induce tolerance in vivo, HTR experiment described in Examples 2 and 5 was repeated where mice received IP injections of vehicle, DOI (10 mg/kg/day), or the “E559 polymorph” (3 mg/kg/day; once daily for 7 consecutive days) and were then challenged with DOI (1 mg/kg) 24 hours later. Data shown in FIG. 22 are group means±standard deviation for the entire 60 minutes test session. Asterisks indicate statistical significances compared to the Vehicle control (Vehicle was saline).

5-HT1F = target: T2, 5-HT1F (Homo sapiens, UniProt P30939); assay: Functional assay (cAMP); assay type: cell-based
T2 construct: expressed in transfected cells; host or cells: HEK-293
T2 sequence (P30939 1-366): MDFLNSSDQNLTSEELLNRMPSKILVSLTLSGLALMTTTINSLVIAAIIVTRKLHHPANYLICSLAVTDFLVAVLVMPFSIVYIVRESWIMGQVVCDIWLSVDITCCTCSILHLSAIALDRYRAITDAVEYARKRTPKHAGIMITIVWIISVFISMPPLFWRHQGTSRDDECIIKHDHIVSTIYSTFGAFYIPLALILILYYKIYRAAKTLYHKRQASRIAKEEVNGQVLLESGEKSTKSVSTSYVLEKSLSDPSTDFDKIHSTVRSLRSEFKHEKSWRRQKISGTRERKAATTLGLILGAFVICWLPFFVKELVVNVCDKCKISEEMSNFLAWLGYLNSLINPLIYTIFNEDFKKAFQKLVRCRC
Protocol: (§1) Neuro-receptor binding and functional effects of the “E559 polymorph” was examined by analyzing binding affinity [Ki (nM)], functional agonist activity [EC50 (nM)], and functional antagonist activity [IC50 (nM)] against a panel of key receptors in neurophysiological disorders. Binding and functional assays were performed at “E559 polymorph” concentrations of 0.0003, 0.003, 0.01, 0.03, 0.1, 0.3, 1, and 10 μM. In binding assays, cell membrane homogenates, expressing each receptor target, were incubated with the corresponding radio-ligand in absence or presence of several concentration of the “E559 polymorph” compound. The measurement of binding affinity of the “E559 polymorph” is represented in TABLE XIII by Ki (nM) which was calculated as percent inhibition of the binding of a radioactively labeled reference ligand at each receptor. In functional assays the HEK-293 cells expressing each receptor target were suspended in buffer and distribute in microplates and incubated for 30 minutes at room temperature or 37° C. in the presence of buffer alone (basal control), the reference agonist or antagonist, or the “E559 polymorph. Following incubation, the cells were lysed and the appropriate fluorescent probe (Ca2+ flux, cAMP, or IP1) were added for 60 minutes to measure the fluorescence transfer at the appropriate wavelength using a microplate reader. The cellular agonist effect (EC50) was calculated as a percent of control response to a known reference agonist and the cellular antagonist effect (IC50) was calculated as a percent inhibition of control reference agonist response for each receptor.
(§2) The functional agonist activity [EC50 (nM), Emax], and functional antagonist activity [IC50 (nM)] of the 5R:8S stereoisomer of the “E559 polymorph” (5R:8S E558) was compared with the “E559 polymorph” (a 5R:8R stereoisomer) at selected serotonin receptors. The assays were performed as described in Example 6.

5-HT1E = target: T3, 5-HT1E (Homo sapiens, UniProt P28566); assay: Functional assay (Arrestin); assay type: cell-based
T3 construct: expressed in transfected cells; host or cells: HEK-293
T3 sequence (P28566 whole entry): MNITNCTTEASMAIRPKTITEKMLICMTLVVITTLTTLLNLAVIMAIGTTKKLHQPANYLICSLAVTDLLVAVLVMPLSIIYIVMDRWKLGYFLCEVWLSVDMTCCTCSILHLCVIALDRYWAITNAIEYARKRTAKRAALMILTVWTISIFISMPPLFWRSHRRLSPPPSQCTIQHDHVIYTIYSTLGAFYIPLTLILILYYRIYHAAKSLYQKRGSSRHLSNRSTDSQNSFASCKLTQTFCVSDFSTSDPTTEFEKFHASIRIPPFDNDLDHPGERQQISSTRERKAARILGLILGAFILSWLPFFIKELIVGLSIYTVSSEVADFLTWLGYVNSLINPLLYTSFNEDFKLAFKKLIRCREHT

[3] = target: T4, Serotonin 1B receptor (5-HT1BR) (Homo sapiens, UniProt P28222); assay: Functional assay in HEK-293 cells (cAMP); assay type: cell-based; conditions: Functional Assay (agonist) EC50 (nM), cAMP; ligand 5-HT
T4 construct: expressed in transfected cells; host or cells: HEK-293
T4 sequence (P28222 whole entry): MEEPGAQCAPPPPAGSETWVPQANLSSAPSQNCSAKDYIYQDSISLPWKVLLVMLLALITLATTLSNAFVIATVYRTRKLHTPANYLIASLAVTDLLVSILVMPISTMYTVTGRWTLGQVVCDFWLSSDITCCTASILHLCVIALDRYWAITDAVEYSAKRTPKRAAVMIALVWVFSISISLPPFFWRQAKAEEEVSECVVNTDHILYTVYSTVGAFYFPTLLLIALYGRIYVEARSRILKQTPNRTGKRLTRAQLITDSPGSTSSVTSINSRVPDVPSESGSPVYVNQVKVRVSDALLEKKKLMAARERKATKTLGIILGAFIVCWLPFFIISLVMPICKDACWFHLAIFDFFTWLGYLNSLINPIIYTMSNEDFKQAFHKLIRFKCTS
Protocol: as §1, §2

[4] = target: T5, Serotonin 2B receptor (5-HT2BR) (Homo sapiens, UniProt P41595); assay: Functional assay in HEK-293 cells (IP1); assay type: cell-based
T5 construct: expressed in transfected cells; host or cells: HEK-293
T5 sequence (P41595 whole entry): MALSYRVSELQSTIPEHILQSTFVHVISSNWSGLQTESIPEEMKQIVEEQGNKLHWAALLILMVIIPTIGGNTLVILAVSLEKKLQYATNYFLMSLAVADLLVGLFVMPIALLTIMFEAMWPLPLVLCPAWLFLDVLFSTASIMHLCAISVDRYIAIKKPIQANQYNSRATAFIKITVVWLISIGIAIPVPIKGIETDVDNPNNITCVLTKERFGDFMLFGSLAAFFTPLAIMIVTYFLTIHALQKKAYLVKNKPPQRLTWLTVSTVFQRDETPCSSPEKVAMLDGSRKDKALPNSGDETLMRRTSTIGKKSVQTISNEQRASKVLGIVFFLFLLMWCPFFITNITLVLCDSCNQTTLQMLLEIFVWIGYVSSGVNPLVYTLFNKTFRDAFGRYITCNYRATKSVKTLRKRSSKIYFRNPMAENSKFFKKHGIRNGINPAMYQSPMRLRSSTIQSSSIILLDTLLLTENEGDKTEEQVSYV
Protocol: as §1, §2

[5] = target: T6, 5-HT2A receptor (5-HT2AR) (Homo sapiens, UniProt P28223); assay: Functional assay in HEK-293 cells (IP1); assay type: cell-based
T6 construct: expressed in transfected cells; host or cells: HEK-293
T6 sequence (P28223 whole entry): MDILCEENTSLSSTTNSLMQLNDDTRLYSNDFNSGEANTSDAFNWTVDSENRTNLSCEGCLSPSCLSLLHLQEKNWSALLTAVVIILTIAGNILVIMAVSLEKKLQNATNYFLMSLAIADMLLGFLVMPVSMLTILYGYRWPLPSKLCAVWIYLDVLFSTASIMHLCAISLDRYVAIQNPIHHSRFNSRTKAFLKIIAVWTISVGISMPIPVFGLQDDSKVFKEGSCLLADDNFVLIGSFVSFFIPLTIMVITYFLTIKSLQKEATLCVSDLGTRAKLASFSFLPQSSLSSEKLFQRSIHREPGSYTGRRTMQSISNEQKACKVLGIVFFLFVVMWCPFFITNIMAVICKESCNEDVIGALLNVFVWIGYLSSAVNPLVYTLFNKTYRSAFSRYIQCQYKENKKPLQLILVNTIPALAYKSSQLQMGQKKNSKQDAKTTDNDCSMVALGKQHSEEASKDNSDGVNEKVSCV
Protocol: as §1, §2

5-HT6 = 5-HT6 (Homo sapiens, UniProt P50406); assay: Functional assay (cAMP); assay type: cell-based; set-up: expressed in transfected cells; host or cells: HEK-293
Chain of 5-HT6 (P50406 whole entry): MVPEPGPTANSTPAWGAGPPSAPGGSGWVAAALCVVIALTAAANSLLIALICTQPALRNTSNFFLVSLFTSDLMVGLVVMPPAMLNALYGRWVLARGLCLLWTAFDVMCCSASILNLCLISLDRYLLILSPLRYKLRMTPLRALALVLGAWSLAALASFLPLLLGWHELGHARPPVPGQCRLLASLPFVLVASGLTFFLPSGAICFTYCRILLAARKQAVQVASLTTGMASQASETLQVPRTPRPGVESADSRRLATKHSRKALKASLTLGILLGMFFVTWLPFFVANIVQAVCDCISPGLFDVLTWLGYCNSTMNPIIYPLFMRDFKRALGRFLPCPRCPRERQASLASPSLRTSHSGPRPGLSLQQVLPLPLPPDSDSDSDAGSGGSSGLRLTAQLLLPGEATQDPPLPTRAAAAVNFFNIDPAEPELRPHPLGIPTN
Protocol: as §1, §2

DVS hygroscopicity = assay type: physicochemical; conditions: for DVS (hold at 75% RH) mass increase: crude material, 75% relative humidity, ~5 hr run time
stress-naïve mice = assay: FST and OFT with volinanserin pre-treatment; assay type: in vivo, mouse
Protocol: The 5-HT2A receptor plays a key role in the function of many serotonergic psychedelics and their derivatives (Jaster et al., Psychopharmacology, 2022, 239, p1665-1677.). […] To further investigate the role of the 5-HT2A receptor in the “E559 polymorph” effects in these in vivo models, the open field test and forced swim test in mice was repeated as described in Example 14, with and without volinanserin, a selective 5-HT2A antagonist, treatment. Briefly, volnanserin (0.125 mg/kg) was administered (IP injection) 1 hour prior to the administration of the “E559 polymorph” (1 mg/kg, IP) to stress-naïve mice, and forced swim test was performed 24 hours later as described in Example 14. In brief, FIG. 26A represents immobility time in the forced swim test of female mice (n=12/group) pre-treated with vehicle or volinanserin, followed by either vehicle (saline) or “E559 polymorph” (1 mg/kg). […] FIG. 26C represents distance travelled in the open field Measured 24 hours after treatment (as in FIG. 26A) in female mice (n=12). […] Horizontal lines in FIG. 26 represent the mean±standard error of the mean (S.E.M.) and asterisks indicate statistical significances.

[6] = test system: primary cortical neurons (rats); assay: In vitro dendritogenesis assay with volinanserin pre-treatment; assay type: cell-based, rat
Protocol: The 5-HT2A receptor plays a key role in the function of serotonergic psychedelics and their derivatives (Jaster, et al., Psychopharmacology, 2022, 239, p1665-1677.). […] The in vitro dendritogenesis assay was repeated in the presence or absence of a selective 5-HT2A antagonist volinanserin. In brief, FIG. 20A represents tracings of the cortical neurons (DIV 3) treated with volinanserin (Vol) at […]) followed by either vehicle or “E559 polymorph” (1 μM). Sholl radii are spaced 10 μm. […] FIG. 20C represents the total dendritic arbour length for neurons treated in FIG. 20A. In FIGS. 20B and 20C, violin plots represent the distribution of individual cells (n=15/treatment), while dots represent the averages per independent experiment (n=5/treatment). In this study primary cortical neurons (rats) were treated with volinanserin (0.1-1 μM), a selected 5-HT2A receptor antagonist, prior to the administration of the “polymorph HT compound” (1 μM 2-Br-LSD).

[7] = cAMP, ligand 5-HT, read-out: Functional Assay (agonist) Emax

T1 sequence (P28223 whole entry, the tested form may be a part): as the sequence (P28223 whole entry) above

With `NCCc1c[nH]c2ccc(O)cc12` [5-HT, serotonin] the “β-Arrestin2 recruitment at the 5-HT2A receptor” value (5-HT2A receptor [1]) was “strong recruiters of β-Arrestin2” and the “internalization of the 5-HT2A receptor (loss of surface expression)” value (5-HT2A receptor [2]) was “potent internalization”.

With `COc1cc(CC(C)N)c(OC)cc1I` (stereo not drawn) [DOI, 2,5-Dimethoxy-4-iodoamphetamine] the “tolerance (tachyphylaxis) after repeated dosing, HTR count on DOI challenge” value (mice) was “induced a significant degree of tachyphylaxis/tolerance”, the “β-Arrestin2 recruitment at the 5-HT2A receptor” value (5-HT2A receptor [1]) was “strong recruiters of β-Arrestin2” and the “internalization of the 5-HT2A receptor (loss of surface expression)” value (5-HT2A receptor [2]) was “potent internalization”.

`CCN(CC)C(=O)[C@H]1C=C2c3cccc4[nH]c(Br)c(c34)C[C@H]2N(C)C1` [E558, (5R, 8S)-2-Bromo-9,10-didehydro-N,N-diethyl-6-methylergoline-8-carboxamide] showed an EC50 (5-HT1F) of 3.12 µM, an Emax (5-HT1F; [7]) of 66.9% and an EC50 (5-HT1E) greater than 10 µM. It also gave an EC50 [3] greater than 10000 nM, an EC50 [4] greater than 10 µM and an IC50 [4] greater than 10 µM. For the same molecule, the EC50 [5] was 0.2 µM, the IC50 [5] was greater than 10 µM and the Emax ([5]; HEK293, IP1, ligand 5-HT, read-out: Functional Assay (agonist) Emax) was 55%. The EC50 (5-HT6) was 0.099 µM and the Emax (5-HT6; [7]) was 71%.

For `CCN(CC)C(=O)[C@@H]1C=C2c3cccc4[nH]c(Br)c(c34)C[C@H]2N(C)C1` [E560, (5R, 8R)-2-Bromo-9,10-didehydro-N,N-diethyl-6-methylergoline-8-carboxamide hemi-L-tartrate], the “DVS (0-90-0 2 cycles) max water absorbed” value (DVS hygroscopicity; 90% RH exposure, ~24 hr run time, listed as L-Tartrate) was “absorbed mad 12%”, the “DVS (hold at 75% RH) mass increase” value (DVS hygroscopicity; listed as L-Tartrate) was 6.3% mass increase and the “DVS (hold at 75% RH) mass increase” value (DVS hygroscopicity; listed as L-tartrate salt) was “about 6.3%”.

With `COc1cccc([C@H](O)C2CCN(CCc3ccc(F)cc3)CC2)c1OC` [volinanserin] the “effect of volinanserin pre-treatment on E559 polymorph induced decrease in immobility in FST” value (stress-naïve mice; volinanserin 0.125 mg/kg IP 1 hour before E559 polymorph 1 mg/kg IP, female and male mice) was “blocked the decrease in immobility”, the “locomotion in the OFT” value (stress-naïve mice; volinanserin alone or with E559 polymorph, female or male mice) was “did not affect locomotion in the OFT in female or male mice” and the “effect of volinanserin on E559 polymorph induced increase in total dendrite length” value ([6]; E559 polymorph 1 μM) was “blocked the increase in total dendrite length”. The “effect of volinanserin pre-treatment on E559 polymorph (1 μM) induced dendritic arbor complexity (Sholl intersections)” value ([6]; every volinanserin concentration tested) was “blocked the effect” and the “dendritic arbor complexity, volinanserin alone” value ([6]; volinanserin followed by vehicle) was “did not change any parameters linked to dendritic arbor complexity”.
